# Reference: patent US8895756B2, “Bendamustine pharmaceutical compositions” (priority 2005, dated 2014)
# Assay: HPLC stability of bendamustine (15 mg/mL, mannitol 25.5 mg/mL) in alcohol/water solutions at 5° C.
# Format: physicochemical
# Conditions: for HP1 (%) / Purity (% Area) / Dimer (%): 5° C.
# Description: A sample of each formulation was analyzed by HPLC after 0, 3, 6 and 24 hours when stored at 5° C.
# [1] = 20% Butanol (2 layers, vortexed), 0 hours
# [2] = 20% Butanol (2 layers, vortexed), 3 hours
# [3] = 20% Butanol (2 layers, vortexed), 6 hours
# [4] = 20% Butanol (2 layers, vortexed), 24 hours
# [5] = 30% Butanol (2 layers, vortexed), 0 hours
# [6] = 30% Butanol (2 layers, vortexed), 3 hours
# [7] = 30% Butanol (2 layers, vortexed), 6 hours
# [8] = 30% Butanol (2 layers, vortexed), 24 hours
structure (smiles),measurement,setting,value
"Cl.Cn1c(CCCC(=O)O)nc2cc(N(CCCl)CCCl)ccc21 [bendamustine, 4-{5-[Bis(2-chloroethyl)amino]-1-methyl-2-benzimidazolyl}butyric acid]",HP1 (%),"10% n-Propanol, 6 hours",0.70%
same,Purity (% Area),"10% n-Propanol, 6 hours",98.92 % Area
same,Dimer (%),"10% n-Propanol, 24 hours",0.28%
same,HP1 (%),"10% n-Propanol, 24 hours",1.83%
same,Purity (% Area),"10% n-Propanol, 24 hours",97.67 % Area
same,Dimer (%),[1],0.10%
same,HP1 (%),[1],0.23%
same,Purity (% Area),[1],99.54 % Area
same,Dimer (%),[2],0.11%
same,HP1 (%),[2],0.31%
same,Purity (% Area),[2],99.45 % Area
same,Dimer (%),[3],0.11%
same,HP1 (%),[3],0.40%
same,Purity (% Area),[3],99.30 % Area
same,Dimer (%),[4],0.14%
same,HP1 (%),[4],0.91%
same,Purity (% Area),[4],98.81 % Area
same,Dimer (%),"20% Ethanol, 0 hours",0.10%
same,HP1 (%),"20% Ethanol, 0 hours",0.22%
same,Purity (% Area),"20% Ethanol, 0 hours",99.54 % Area
same,Dimer (%),"20% Ethanol, 3 hours",0.11%
same,HP1 (%),"20% Ethanol, 3 hours",0.30%
same,Purity (% Area),"20% Ethanol, 3 hours",99.45 % Area
same,Dimer (%),"20% Ethanol, 6 hours",0.11%
same,HP1 (%),"20% Ethanol, 6 hours",0.39%
same,Purity (% Area),"20% Ethanol, 6 hours",99.36 % Area
same,Dimer (%),"20% Ethanol, 24 hours",0.15%
same,HP1 (%),"20% Ethanol, 24 hours",0.96%
same,Purity (% Area),"20% Ethanol, 24 hours",98.61 % Area
same,Dimer (%),"20% Iso-propanol, 0 hours",0.11%
same,HP1 (%),"20% Iso-propanol, 0 hours",0.21%
same,Purity (% Area),"20% Iso-propanol, 0 hours",99.49 % Area
same,Dimer (%),"20% Iso-propanol, 3 hours",0.12%
same,HP1 (%),"20% Iso-propanol, 3 hours",0.31%
same,Purity (% Area),"20% Iso-propanol, 3 hours",99.39 % Area
same,Dimer (%),"20% Iso-propanol, 6 hours",0.13%
same,HP1 (%),"20% Iso-propanol, 6 hours",0.42%
same,Purity (% Area),"20% Iso-propanol, 6 hours",99.22 % Area
same,Dimer (%),"20% Iso-propanol, 24 hours",0.17%
same,HP1 (%),"20% Iso-propanol, 24 hours",1.04%
same,Purity (% Area),"20% Iso-propanol, 24 hours",98.61 % Area
same,Dimer (%),"20% Methanol, 0 hours",0.11%
same,HP1 (%),"20% Methanol, 0 hours",0.22%
same,Purity (% Area),"20% Methanol, 0 hours",99.56 % Area
same,Dimer (%),"20% Methanol, 3 hours",0.11%
same,HP1 (%),"20% Methanol, 3 hours",0.38%
same,Purity (% Area),"20% Methanol, 3 hours",99.31 % Area
same,Dimer (%),"20% Methanol, 6 hours",0.12%
same,HP1 (%),"20% Methanol, 6 hours",0.50%
same,Purity (% Area),"20% Methanol, 6 hours",98.99 % Area
same,Dimer (%),"20% Methanol, 24 hours",0.16%
same,HP1 (%),"20% Methanol, 24 hours",1.15%
same,Purity (% Area),"20% Methanol, 24 hours",98.31 % Area
same,Dimer (%),"20% Tert-butanol, 0 hours",0.11%
same,HP1 (%),"20% Tert-butanol, 0 hours",0.17%
same,Purity (% Area),"20% Tert-butanol, 0 hours",99.59 % Area
same,Dimer (%),"20% Tert-butanol, 3 hours",0.11%
same,HP1 (%),"20% Tert-butanol, 3 hours",0.29%
same,Purity (% Area),"20% Tert-butanol, 3 hours",99.48 % Area
same,Dimer (%),"20% Tert-butanol, 6 hours",0.12%
same,HP1 (%),"20% Tert-butanol, 6 hours",0.40%
same,Purity (% Area),"20% Tert-butanol, 6 hours",99.35 % Area
same,Dimer (%),"20% Tert-butanol, 24 hours",0.20%
same,HP1 (%),"20% Tert-butanol, 24 hours",1.27%
same,Purity (% Area),"20% Tert-butanol, 24 hours",98.35 % Area
same,Dimer (%),"20% n-Propanol, 0 hours",0.13%
same,HP1 (%),"20% n-Propanol, 0 hours",0.33%
same,Purity (% Area),"20% n-Propanol, 0 hours",99.45 % Area
same,Dimer (%),"20% n-Propanol, 3 hours",0.13%
same,HP1 (%),"20% n-Propanol, 3 hours",0.26%
same,Purity (% Area),"20% n-Propanol, 3 hours",99.42 % Area
same,Dimer (%),"20% n-Propanol, 6 hours",0.14%
same,HP1 (%),"20% n-Propanol, 6 hours",0.39%
same,Purity (% Area),"20% n-Propanol, 6 hours",99.29 % Area
same,Dimer (%),"20% n-Propanol, 24 hours",0.24%
same,HP1 (%),"20% n-Propanol, 24 hours",0.97%
same,Purity (% Area),"20% n-Propanol, 24 hours",98.60 % Area
same,HP1,"30% (v/v) TBA, stored at 5° C. for up to 24 hours",about 0.4%
same,Dimer (%),[5],0.10%
same,HP1 (%),[5],0.24%
same,Purity (% Area),[5],99.55 % Area
same,Dimer (%),[6],0.10%
same,HP1 (%),[6],0.29%
same,Purity (% Area),[6],99.40 % Area
same,Dimer (%),[7],0.11%
same,HP1 (%),[7],0.37%
same,Dimer (%),[8],0.12%
same,HP1 (%),[8],0.74%
same,Dimer (%),"30% Ethanol, 0 hours",0.10%
same,HP1 (%),"30% Ethanol, 0 hours",0.15%
same,Purity (% Area),"30% Ethanol, 0 hours",99.62 % Area
same,Dimer (%),"30% Ethanol, 3 hours",0.11%
same,HP1 (%),"30% Ethanol, 3 hours",0.21%
same,Purity (% Area),"30% Ethanol, 3 hours",99.56 % Area
same,Dimer (%),"30% Ethanol, 6 hours",0.12%
same,HP1 (%),"30% Ethanol, 6 hours",0.24%
same,Purity (% Area),"30% Ethanol, 6 hours",99.52 % Area
same,Dimer (%),"30% Ethanol, 24 hours",0.12%
same,HP1 (%),"30% Ethanol, 24 hours",0.45%
same,Purity (% Area),"30% Ethanol, 24 hours",99.21 % Area
same,Dimer (%),"30% Iso-propanol, 0 hours",0.10%
same,HP1 (%),"30% Iso-propanol, 0 hours",0.15%
same,Purity (% Area),"30% Iso-propanol, 0 hours",99.56 % Area
same,Dimer (%),"30% Iso-propanol, 3 hours",0.12%
same,HP1 (%),"30% Iso-propanol, 3 hours",0.20%
same,Purity (% Area),"30% Iso-propanol, 3 hours",99.47 % Area
same,Dimer (%),"30% Iso-propanol, 6 hours",0.11%
same,HP1 (%),"30% Iso-propanol, 6 hours",0.24%
same,Purity (% Area),"30% Iso-propanol, 6 hours",99.40 % Area
same,Dimer (%),"30% Iso-propanol, 24 hours",0.14%
same,HP1 (%),"30% Iso-propanol, 24 hours",0.52%
same,Purity (% Area),"30% Iso-propanol, 24 hours",99.15 % Area
same,Dimer (%),"30% Methanol, 0 hours",0.10%
same,HP1 (%),"30% Methanol, 0 hours",0.18%
same,Purity (% Area),"30% Methanol, 0 hours",99.59 % Area
same,Dimer (%),"30% Methanol, 3 hours",0.11%
same,HP1 (%),"30% Methanol, 3 hours",0.27%
same,Purity (% Area),"30% Methanol, 3 hours",99.43 % Area
same,Dimer (%),"30% Methanol, 6 hours",0.11%
same,HP1 (%),"30% Methanol, 6 hours",0.34%
same,Purity (% Area),"30% Methanol, 6 hours",99.25 % Area
same,Dimer (%),"30% Methanol, 24 hours",0.13%
same,HP1 (%),"30% Methanol, 24 hours",0.76%
same,Purity (% Area),"30% Methanol, 24 hours",98.65 % Area
same,Dimer (%),"30% Tert-butanol, 0 hours",0.10%
same,HP1 (%),"30% Tert-butanol, 0 hours",0.13%
same,Purity (% Area),"30% Tert-butanol, 0 hours",99.63 % Area
same,Dimer (%),"30% Tert-butanol, 3 hours",0.10%
same,HP1 (%),"30% Tert-butanol, 3 hours",0.16%
same,Purity (% Area),"30% Tert-butanol, 3 hours",99.60 % Area
same,Dimer (%),"30% Tert-butanol, 6 hours",0.11%
same,HP1 (%),"30% Tert-butanol, 6 hours",0.18%
same,Purity (% Area),"30% Tert-butanol, 6 hours",99.58 % Area
same,Dimer (%),"30% Tert-butanol, 24 hours",0.12%
same,HP1 (%),"30% Tert-butanol, 24 hours",0.34%
same,Purity (% Area),"30% Tert-butanol, 24 hours",99.42 % Area
same,Dimer (%),"30% n-Propanol, 0 hours",0.13%
same,HP1 (%),"30% n-Propanol, 0 hours",0.15%
same,Purity (% Area),"30% n-Propanol, 0 hours",99.53 % Area
same,Dimer (%),"30% n-Propanol, 3 hours",0.15%
same,HP1 (%),"30% n-Propanol, 3 hours",0.15%
same,Purity (% Area),"30% n-Propanol, 3 hours",99.51 % Area
same,Dimer (%),"30% n-Propanol, 6 hours",0.11%
same,HP1 (%),"30% n-Propanol, 6 hours",0.20%
same,Purity (% Area),"30% n-Propanol, 6 hours",99.44 % Area
same,Dimer (%),"30% n-Propanol, 24 hours",0.17%
same,HP1 (%),"30% n-Propanol, 24 hours",0.36%
same,Purity (% Area),"30% n-Propanol, 24 hours",99.27 % Area
